Data set [1] addresses T1, Ec IspD (Escherichia coli, UniProt Q46893). Kind of data set: EnzChek enzymatic activity assay Ec IspD. The data set is classed as biochemical.
Description: The EnzChek® assay has a phosphate sensitivity of 2-150 μM. To ensure there is no interference caused by assay components, three standards were performed on each plate: buffer only, without CTP and without MEP.
Here, for the plate-based assay, IspD converts MEP to CDP-ME pyrophosphate, which in turn is converted to inorganic phosphate (Pi) with the enzyme inorganic pyrophosphatase. The EnzChek® Phosphate Assay kit follows the formation of the inorganic phosphate through a reaction with 2-amino-6-mercapto-7-methylpurine riboside (MESG) and the enzyme purine nucleoside phosphorylase (PNP). This reaction converts the MESG into ribose 1-phosphate and 2-amino-6-mercapto-7-methylpurine resulting in a spectrophotometric shift in a maximum absorbance from 330 nm to 360 nm. Reactions were performed in 50 μL final volumes in 96-well clear flat bottom plates, and were initiated by addition of 50 ng purified Ec IspD. Absorbance at 360 nm was measured every 31 seconds for 20 minutes on a Synergy 2 Multi-Mode plate reader (BioTek), preheated to 37° C. Final concentration of reagents was as follows: 1×EnzChek® reaction buffer (50 mM Tris pH 7.5, 1 mM magnesium chloride (MgCl2), 100 μM sodium azide (NaN3)), 0.2 mM MESG, 1 U/ml PNP, 1 U/mL inorganic Pyrophosphatase (NEB), 200 mM CMP (Sigma), and 50 μM MEP (Echelon).
Another data set has as its target Bt IspD (Burkholderia thailandensis, UniProt Q2SWT6). The data set is classed as binding.
A further data set concerns Mycobacterium smegmatis. The data set can be described thus: Antibacterial preliminary screening MS. Note: key: 0 represents no inhibition; 3 is comparable to commercial antibiotic control. In kind it is cell-based. Particulars: score 0-3.
In the next data set the test system is Pseudomonas aeruginosa. Kind of data set: Antibacterial preliminary screening PA. Note: key: 0 represents no inhibition; 3 is comparable to commercial antibiotic control. In kind it is cell-based. Particulars: score 0-3.
The target in data set [2] is Lycopersicon esculentum IspE (LeIspE) (Solanum lycopersicum, UniProt P93841). Kind of data set: Thermal shift assay against LeIspE. The data set is classed as binding.
In the next data set the target is P. falciparum IspD (Plasmodium falciparum, UniProt Q8I273). The data set can be described thus: IspD assay (Washington University, EnzCheck phosphate) PfIspD. In kind it is biochemical.
Another data set has as its system lettuce seeds. The data set can be described thus: Lettuce leaf assay. In kind it is in vivo. More on the design: key: 0 (no effect); 5(complete inhibition or bleaching). Particulars: ranking 0-5. The method, boiled down:
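Qualitative assay: compounds in volatile organic solvent applied to filter paper in a petri dish, solvent evaporated, lettuce seeds and 5 mL water added to give test concentrations. Germination, root development and leaf bleaching scored days 3 and 4, ranked 0 (no effect) to 5 (complete inhibition or bleaching).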

The subject of another data set is Klebsiella pneumonia. The data set can be described thus: Antibacterial preliminary screening KP. Note: key: 0 represents no inhibition; 3 is comparable to commercial antibiotic control. The data set is classed as cell-based. Particulars: score 0-3.
The target in data set [3] is T2, Mycobacterium tuberculosis IspD (MtIspD) (Mycobacterium tuberculosis, UniProt P9WKG9).
T2 sequence (P9WKG9 1-231): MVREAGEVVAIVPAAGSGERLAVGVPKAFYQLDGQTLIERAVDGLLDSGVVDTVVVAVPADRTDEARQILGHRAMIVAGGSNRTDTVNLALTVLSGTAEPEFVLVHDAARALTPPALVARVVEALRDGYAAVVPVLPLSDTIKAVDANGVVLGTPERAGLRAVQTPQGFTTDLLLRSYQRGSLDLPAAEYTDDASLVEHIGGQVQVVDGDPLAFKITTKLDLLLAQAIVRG
Kind of data set: Thermal shift assay against MtIspD. In kind it is binding.

In a further data set the target is E. coli IspD (Escherichia coli, UniProt Q46893). Kind of data set: IspD assay (Washington University, EnzCheck phosphate) EcIspD. In kind it is biochemical. Particulars: up to 100 μM; bar graph at 12.5 and 100 μM. As to the method: Compounds were tested against IspD from Escherichia coli and Plasmodium falciparum. The assay measured activity through monitoring phosphate levels released by IspD enzyme over time using conditions published previously. The assay utilized the EnzCheck phosphate assay kit to quantify phosphate released by IspD. Reactions were done in a 96-well plate with each well containing a final volume of 50 μL. Concentrations of reagents were as follows: 100 mM NaCl, 25 mM Tris at pH 7.0, 7.5 mM MgCl2, 1 mM dithiothreitol, 1 U/mL purine nucleoside phosphorylase, and 0.1 U/mL yeast inorganic pyrophosphatase, 50 μM CTP, 500 μM MEP, 0.1% DMSO, and 0.2 mM 2-Amino-6-mercapto-7-methyl puring riboside. Reactions with EclspD used 2 nM EclspD and reactions with PfIspD used 50 nM PfIspD. Reactions involved pre-warming the enzyme and buffers to 37° C. with different inhibitor concentrations followed by the addition of the purified MEP substrate. Absorbance was measured at 360 nm over time and values were used to create regression analysis curves from three trials and values were converted to (μM MEP)(μM enzyme)^−1s^−1 using a standard phosphate curve. These values were then used to identify percent activity compared to enzyme activity without the inhibitor. Results are indicated.

In another data set the target is AtIspD (Arabidopsis thaliana, UniProt P69834). The data set can be described thus: University of Hamburg photometric enzymatic inhibition assay AtIspD. Particulars: read-out: AtIspD IC50. The data set is classed as biochemical. In short, it runs like this: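 Coupled photometric assay: 2.4 mU AtIspD with 1 mM (2R,3S)-2,3-dihydroxy-4-oxopentyl phosphate, 2.1 mM CTP, excess IspE (0.4 U), ATP, pyruvate kinase/lactate dehydrogenase and 460 μM NADH. Run in 100 mM Tris-HCl pH 8.0, 10 mM MgCl2, 1 mM DTT, 1.1% DMSO at 27 °C, monitored photometrically.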

A further data set addresses LeIspE (Solanum lycopersicum, UniProt P93841). The data set can be described thus: University of Hamburg photometric enzymatic inhibition assay LeIspE. In kind it is biochemical, Lycopersicon esculentum. Particulars: read-out: LeIspE IC50. The method, boiled down:
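Photometric coupled assay with pyruvate kinase/lactate dehydrogenase following NADH (460 μM). Mix: 100 mM Tris-HCl pH 8.0, 10 mM MgCl2, 1 mM DTT, 2.5 mM phosphoenolpyruvate, 2 mM ATP, 1 mM 4-diphosphocytidyl-2-C-methylerythritol, 1.1% DMSO, 2.4 mU IspE; incubated at 27° C.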

For the next data set, the system named is Corynebacterium xerosis. The data set can be described thus: Antibacterial preliminary screening CX. Note: key: 0 represents no inhibition; 3 is comparable to commercial antibiotic control. The data set is classed as cell-based. Particulars: score 0-3.
Another data set concerns Bacillus cereus. The data set can be described thus: Antibacterial preliminary screening BC. Note: key: 0 represents no inhibition; 3 is comparable to commercial antibiotic control. Particulars: score 0-3. In kind it is cell-based.
For data set [4], the system named is Corynebacterium pseudodiphtheriae. The data set can be described thus: Antibacterial preliminary screening CP.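 Note: 0 is no inhibition and 3 matches the commercial antibiotic control.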 In kind it is cell-based. Particulars: score 0-3.
In another data set the target is AtIspF (Arabidopsis thaliana, UniProt Q9CAK8). The data set can be described thus: University of Hamburg photometric enzymatic inhibition assay AtIspF. In kind it is biochemical. Particulars: read-out: AtIspF IC50. The method, boiled down:
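Coupled photometric assay (CMP kinase/pyruvate kinase/lactate dehydrogenase, NADH consumption) with 2.4 mU AtIspF and 1 mM 4-diphosphocytidyl-2C-methylerythritol 2-phosphate, 2 mM ATP, in 100 mM Tris-HCl pH 8.0, 10 mM MgCl2, 1.1% DMSO. Monitored at 27 °C.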

Another data set deals with Micrococcus luteus. The data set can be described thus: Antibacterial preliminary screening ML. Note: key: 0 represents no inhibition; 3 is comparable to commercial antibiotic control. In kind it is cell-based. Particulars: score 0-3.
Data set [5] relates to Burkholderia thailandensis. In kind it is cell-based. Particulars: preliminary screening, score 0-3.
Another data set relates to Escherichia coli. The data set can be described thus: Antibacterial preliminary screening EC. Note: key: 0 represents no inhibition; 3 is comparable to commercial antibiotic control. Particulars: score 0-3. In kind it is cell-based.
Data set [6] addresses Mycobacterium paratuberculosis IspD (MpIspD) (Mycolicibacterium paratuberculosis, UniProt Q743W5). The data set can be described thus: Thermal shift assay against MpIspD. The data set is classed as binding. Particulars: MpIspD.
For data set [7], the target named is T1, Ec IspD. Kind of data set: Thermal shift (DSF) screening against Ec IspD. Particulars: for change in the observed melting temperature of Ec IspD: MicroSource Spectrum screening. The data set is classed as binding. On the procedure: The library based screening technique in conjunction with the thermal shift assay was implemented to evaluate compounds from Spectrum collection.
All DSF experiments were performed in 50 mM phosphate buffer at pH 7.4, 150 mM NaCl, 1×SYPRO orange, 2% DMSO and 200 to 1000 nM of the enzyme with a total volume of 25 μL. Final enzyme concentrations used were […] for Ec IspD and 0.5 μM for Bt IspD. Samples were measured on a Bio-Rad iQ5 Real-Time PCR (Bio-Rad Life Sciences) using a temperature range of 25 to 95° C. at a rate of 1° C. per minute with the fluorescence measured every 0.5° C. every 10 seconds with wavelengths of 530 and 570 nm used for excitation and emission, respectively. The melting temperature (Tm value) was determined from the first derivative of the graph of relative fluorescence units vs. temperature.

Like-named read-outs stand apart in the source and are kept apart here.

Data on nine compounds can be found in patent US11026426B2, “Oxadiazole and phenol derivatives as antibacterial and/or herbicidal agents” (NORTHERN ILLINOIS RESEARCH FOUNDATION, priority 2017, dated 2021).

LeIspE, sequence (P93841 89-401): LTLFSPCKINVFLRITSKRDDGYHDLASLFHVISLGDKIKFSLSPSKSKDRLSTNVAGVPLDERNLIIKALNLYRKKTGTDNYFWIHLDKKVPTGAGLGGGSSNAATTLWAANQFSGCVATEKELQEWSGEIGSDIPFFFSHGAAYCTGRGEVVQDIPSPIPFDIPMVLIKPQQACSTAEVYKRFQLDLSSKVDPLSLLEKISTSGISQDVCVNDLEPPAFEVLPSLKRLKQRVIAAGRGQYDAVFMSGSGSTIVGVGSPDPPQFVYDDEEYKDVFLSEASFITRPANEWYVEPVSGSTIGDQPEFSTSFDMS
Lycopersicon esculentum IspE (LeIspE), sequence (P93841 89-401): as above
Bt IspD, sequence (Q2SWT6 whole entry): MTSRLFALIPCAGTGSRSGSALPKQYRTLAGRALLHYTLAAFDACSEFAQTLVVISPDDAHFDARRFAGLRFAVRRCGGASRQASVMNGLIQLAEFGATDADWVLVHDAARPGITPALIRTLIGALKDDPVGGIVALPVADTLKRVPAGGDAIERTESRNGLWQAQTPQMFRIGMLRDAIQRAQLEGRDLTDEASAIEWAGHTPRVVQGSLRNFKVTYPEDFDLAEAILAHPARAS
AtIspD, sequence (P69834 62-302): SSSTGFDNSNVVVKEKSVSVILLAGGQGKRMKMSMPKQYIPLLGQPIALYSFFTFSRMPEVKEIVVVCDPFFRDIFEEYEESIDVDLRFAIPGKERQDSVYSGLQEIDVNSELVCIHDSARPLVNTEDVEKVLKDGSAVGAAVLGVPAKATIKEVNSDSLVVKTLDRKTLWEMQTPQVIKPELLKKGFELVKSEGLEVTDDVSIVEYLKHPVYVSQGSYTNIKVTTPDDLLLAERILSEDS
AtIspF, sequence (Q9CAK8 53-231): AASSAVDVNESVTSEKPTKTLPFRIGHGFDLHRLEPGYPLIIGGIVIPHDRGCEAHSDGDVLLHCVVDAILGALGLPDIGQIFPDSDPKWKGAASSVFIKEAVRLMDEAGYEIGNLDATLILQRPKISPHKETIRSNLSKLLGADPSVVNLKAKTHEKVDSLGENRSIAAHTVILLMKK
T1 sequence (Q46893 whole entry): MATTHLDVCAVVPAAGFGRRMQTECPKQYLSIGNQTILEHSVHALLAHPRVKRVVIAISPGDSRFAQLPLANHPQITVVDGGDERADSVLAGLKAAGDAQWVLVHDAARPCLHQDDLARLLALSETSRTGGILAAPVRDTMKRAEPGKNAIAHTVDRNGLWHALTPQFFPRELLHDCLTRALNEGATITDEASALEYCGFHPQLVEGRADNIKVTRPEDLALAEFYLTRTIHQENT
E. coli IspD, sequence (Q46893 whole entry): as above
Mycobacterium paratuberculosis IspD (MpIspD), sequence (Q743W5 whole entry): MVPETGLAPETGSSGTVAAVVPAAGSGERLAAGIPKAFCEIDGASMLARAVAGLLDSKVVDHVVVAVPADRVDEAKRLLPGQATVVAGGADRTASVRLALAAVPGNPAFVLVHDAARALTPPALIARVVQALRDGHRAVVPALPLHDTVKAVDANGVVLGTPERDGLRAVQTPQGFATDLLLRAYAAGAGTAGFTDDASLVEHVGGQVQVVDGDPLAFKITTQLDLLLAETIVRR
P. falciparum IspD, sequence (Q8I273 entry or part of it): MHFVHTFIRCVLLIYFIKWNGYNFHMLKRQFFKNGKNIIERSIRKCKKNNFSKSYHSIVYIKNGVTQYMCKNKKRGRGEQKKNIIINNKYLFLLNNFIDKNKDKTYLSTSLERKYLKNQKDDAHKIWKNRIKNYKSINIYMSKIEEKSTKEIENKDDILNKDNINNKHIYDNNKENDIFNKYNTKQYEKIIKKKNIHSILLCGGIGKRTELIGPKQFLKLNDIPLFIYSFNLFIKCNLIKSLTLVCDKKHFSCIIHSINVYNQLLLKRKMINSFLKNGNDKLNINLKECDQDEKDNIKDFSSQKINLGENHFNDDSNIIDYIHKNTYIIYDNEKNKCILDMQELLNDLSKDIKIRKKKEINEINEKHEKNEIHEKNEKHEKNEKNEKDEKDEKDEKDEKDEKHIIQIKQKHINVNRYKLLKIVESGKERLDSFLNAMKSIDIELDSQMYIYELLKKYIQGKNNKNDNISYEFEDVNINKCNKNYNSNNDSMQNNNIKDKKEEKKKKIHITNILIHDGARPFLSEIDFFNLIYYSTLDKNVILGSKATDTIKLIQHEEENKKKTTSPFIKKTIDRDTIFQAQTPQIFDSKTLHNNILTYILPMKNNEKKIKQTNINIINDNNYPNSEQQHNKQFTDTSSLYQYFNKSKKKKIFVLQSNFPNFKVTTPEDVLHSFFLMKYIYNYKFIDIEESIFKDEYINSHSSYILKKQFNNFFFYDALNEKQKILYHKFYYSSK
Description for Bt IspD: ITC studies were performed with a Microcal VP-ITC titration calorimeter (Malvern Instruments). Proteins were dialyzed overnight against four liters of buffer (20 mM sodium phosphate, 150 mM NaCl, pH 7.4). Compounds were dissolved in DMSO and brought to concentration with the dialysis buffer, with a maximum DMSO concentration of 10% by volume, and centrifuged at 10,000 RPM for 10 minutes. DMSO concentrations were matched between the protein and ligand. The dialysis buffer was used for all sample dilutions to ensure buffers matching between the titrant and titrate, thus minimizing the excess heat due to buffer mismatch. The Pace method was utilized for the determination of the extinction coefficients at 280 nm for Ec IspD (30,940 M^−1 cm^−1) and Bt IspD (41,940 M^−1 cm^−1). Cytidine triphosphate's extinction coefficient was 9,100 M^−1 cm^−1. The absorbance values of protein and CTP solutions were determined using the NanoDrop (in triplicate). All other compound concentrations were determined by dry weight. ITC experiments were performed with IspD in the cell and ligand in the syringe, which is at 100 times the concentration of the sample in the cell due to the low predicted affinities for IspD.
The initial injection volume was 2 μL (omitted) followed by 27 10 μL injections, every 240 seconds. Samples were run at 25° C., at pH 7.4, with a stirring speed of 307 RPM. Dilution runs were performed to allow determination of background heats caused by solution mismatch and instrument noise. Dilution runs were performed with ligand (at the same concentration as in the experiment run) in the syringe titrated into the dialysis buffer in the cell. Data were fit using OriginPro 7 with the ITC add-on by the manufacturer.
ITC studies were performed to observe the dissociation constant along with thermodynamic properties of the reactant CTP with Bt IspD.

Take `CC(C)c1cc2c(c(O)c1O)[C@@]1(C(=O)O)CCCC(C)(C)[C@@H]1CC2` [carnosic acid]: on Ec IspD [1], 794 ± 100 µM corresponded to half-maximal inhibition (IC50).

`O=C(/C=C/c1ccc(O)cc1)c1ccc(O)cc1O` [isoliquiritigenin] returned a half-inhibitory concentration (IC50) against Ec IspD [1] of 279 ± 12 µM.

For the compound `Nc1ccn([C@@H]2O[C@H](COP(=O)(O)OP(=O)(O)OP(=O)(O)O)[C@@H](O)[C@H]2O)c(=O)n1` [CTP, Cytidine triphosphate], at Bt IspD, the “KD app (ITC, words)” value is recorded as “in the millimolar range” and the “entropic contribution −TΔS (ITC)” value was 5.6±1.838. The “ΔH° (ITC)” value on Bt IspD (stoichiometry fixed at two CTPs per dimer) is -6.991 ± 1.749 kcal/mol.

`Clc1ccc(-c2nnc(-c3cc4ccccc4[nH]3)o2)cc1` [HGN-213, 2-(4-chlorophenyl)-5-(1H-indol-2-yl)-1,3,4-oxadiazole] registered a melting point of 265 to 270 °C. The same compound registered an MS score in the data set with Mycobacterium smegmatis of 0. The PA score in the data set with Pseudomonas aeruginosa is on record as 0. Also, in [2], the “LeIspE melting point change” value was −2.00 °C and the LeIspE melting temp turned out to be 47.50 °C. In addition, the IC50 against P. falciparum IspD is roughly 100 µM. Besides, in the data set with lettuce seeds (0.2 mM), the Bleaching is listed as 0, the Germination is recorded as 1 and the “Root Dev.” value was 0. Besides, the KP score in the data set with Klebsiella pneumonia is recorded as 0. Moreover, in [3], the “MtIspD melting point change” value worked out at 0.8 °C and the MtIspD melting temp was 48.8 °C. Besides, on E. coli IspD, the “inhibition of E. coli IspD activity” value is on record as “some activity”. At AtIspD, the half-maximal inhibitory concentration (IC50) was 490 µM. Besides, the half-maximal inhibitory concentration (IC50) on LeIspE is 326 ± 29 µM. The same compound yielded a CX score in the data set with Corynebacterium xerosis of 0. Moreover, the BC score with Bacillus cereus is 0. In addition, the CP score in [4] stood at 0. Also, the IC50 at AtIspF was greater than 1000 µM. Further, the ML score in the data set on Micrococcus luteus is reported as 0. The BT score in [5] is listed as 0. In addition, in the data set on Escherichia coli, the EC score is given as 0.

`FC(F)(F)c1nnc(-c2cc3ccccc3[nH]2)o1` [HGN-211, 2-(1H-indol-2-yl)-5-(trifluoromethyl)-1,3,4-oxadiazole] had a melting point of 182 to 184 °C. This compound also registered an MS score in the data set with Mycobacterium smegmatis of 0. For the same compound, the PA score with Pseudomonas aeruginosa is 0. In addition, in data set [2], the “LeIspE melting point change” value is −0.75 °C and the LeIspE melting temp is 48.75 °C. Further, in the data set with lettuce seeds (0.5 mM), the Bleaching was 0, the Germination came out at 1 and the “Root Dev.” value came to 0. In addition, in the data set with lettuce seeds (1.0 mM), the Bleaching turned out to be 0, the Germination was 2 and the “Root Dev.” value worked out at 0. The compound further registered a KP score with Klebsiella pneumonia of 0. Moreover, in [3], the “MtIspD melting point change” value is 1.3 °C and the MtIspD melting temp was found to be 49.3 °C. On AtIspD, the half-maximal inhibitory concentration (IC50) is greater than 1000 µM. In addition, the half-maximal inhibitory concentration (IC50) on LeIspE is greater than 1000 µM. Also, the CX score in the data set on Corynebacterium xerosis stood at 0. Further, in the data set on Bacillus cereus, the BC score was 0. For the same compound, the CP score in data set [4] is recorded as 0. Moreover, at AtIspF, the half-inhibitory concentration (IC50) was greater than 1000 µM. This compound showed an ML score with Micrococcus luteus of 0. In [5], the BT score is recorded as 0. Also, the “increase in melting point over HGN-207” value in data set [6] is 0.3 °C. The compound also registered an EC score with Escherichia coli of 0.

`CC(=O)[O-].CC(=O)[O-].[Cd+2]` [cadmium acetate]: the “change in the observed melting temperature of Ec IspD” value at Ec IspD [7] is −13.53 °C.

For `c1ccc2[nH]c(-c3nnc(C4CCCC4)o3)cc2c1` [HGN-252, 2-cyclopentyl-5-(1H-indol-2-yl)-1,3,4-oxadiazole], the melting point lay in the range of 150 to 154 °C. The MS score in the data set on Mycobacterium smegmatis is recorded as 0. The PA score in the data set with Pseudomonas aeruginosa worked out at 0. Moreover, in [2], the “LeIspE melting point change” value is −2.50 °C and the LeIspE melting temp stood at 47.00 °C. In the data set with lettuce seeds (0.5 mM), the Bleaching came to 0, the Germination worked out at 1 and the “Root Dev.” value came out at 0. Also, in the data set with lettuce seeds (1.0 mM), the Bleaching turned out to be 0, the Germination turned out to be 2 and the “Root Dev.” value was determined as 0. This compound also yielded a KP score in the data set on Klebsiella pneumonia of 0. For the same compound, the MtIspD melting temp in data set [3] worked out at 49.5 °C. On E. coli IspD, the “inhibition of E. coli IspD activity” value was “significant activity”. Further, the IC50 at AtIspD was greater than 1000 µM. Further, the IC50 at LeIspE is greater than 1000 µM. For the same compound, the CX score in the data set on Corynebacterium xerosis was found to be 0. Further, the BC score with Bacillus cereus is recorded as 0. For the same compound, the CP score in data set [4] is recorded as 0. Further, the IC50 on AtIspF is greater than 1000 µM. Besides, in the data set on Micrococcus luteus, the ML score turned out to be 0. The BT score in data set [5] came out at 0. Also, the EC score with Escherichia coli amounted to 0.

For `[O-][n+]1ccccc1S` [2-mercaptopyradine-N-oxide, 2-mercaptopyridine-N-oxide], the “effect on thermal stability of Ec IspD” value on Ec IspD [7] was “did not have an effect on the thermal stability”.

With `C[CH2][Hg][S]c1ccccc1C(=O)[O-].[Na+]` [thimerosal, reference compound], on Ec IspD [1] (EnzChek assay, read-out: Ec IspD IC50), the IC50 is 381 ± 12 µM. Moreover, on Ec IspD [7], the “change in the observed melting temperature of Ec IspD” value is “+3.53 °C”.
